What was measured:
[1] = tested on: HIV-1RF; experiment: XTT cytoprotection assay, HIV-1RF infection in CEM-SS cells; type: cell-based; conditions: for SI (CC50/EC50) CEM-SS cells: CC50/EC50 ratio, HIV-1RF in CEM-SS cells; for EC50: Human immunodeficiency virus 1, inhibition of cytopathicity of HIV-1RF in CEM-SS cells
Experimental: (§1) In Vitro Antiviral Assay. Evaluation of the antiviral activity of compounds against HIV- 1RF infection in CEM-SS cells was performed using the XTT cytoprotection assay, as previously described (Buckheit, R. W. Jr., et al., Antiviral Res. 1995, 26, 117-132). Evaluation of the antiviral activity of compounds against HIV-1IIIB and HIV-2ROD in MT-4 cells was performed using the MTT assay, as previously described (Rice, W. G. and Bader, J. P., Adv. Pharmacol. (San Diego) 1995, 33, 389-438).

[2] = tested on: HIV-1IIIB; experiment: MTT assay, HIV-1IIIB in MT-4 cells; type: cell-based; conditions: for SI (CC50/EC50) MT-4 cells: CC50/EC50 ratio, HIV-1IIIB in MT-4 cells; for EC50: Human immunodeficiency virus 1, MT4, inhibition of cytopathicity of HIV-1IIIB in MT-4 cells
Experimental: as §1

[3] = molecular target: HIV-1 reverse transcriptase (Human immunodeficiency virus type 1 group M subtype B, UniProt P04585); experiment: RT inhibition assay, incorporation of [32P]GTP into poly(rC)/oligo(dG) template primer; type: biochemical; conditions: poly(rC):oligo(dG) as the template primer; mean of at least two experiments; read-out: IC50 inhibitory activity versus HIV-1 reverse transcriptase
Experimental: RT Inhibition Assay. Inhibition of purified recombinant reverse transcriptase was measured by the incorporation of [^32P]GTP into poly(rC)/oligo(dG) homopolymer template primers, as previously described (Cushman, M., et al., J. Med. Chem. 1996, 39, 3217-3227).

[4] = Cytotoxicity for mock-infected MT-4 cells; type: cell-based; conditions: human
Experimental: as §1
(§2) Biological Results. The antiviral activities of the ADAMs were evaluated by determining their ability to inhibit the enzymatic activity of HIV-1 RT in vitro (IC50) and protect HIV-infected cells from the cytopathic effects (EC50) of two viral strains (HIV-1RF and HIV-1IIIB). The cytotoxicities (CC50) of the ADAMs were determined on CEM-SS cells and MT-4 cells.

[5] = Cytotoxicity for mock-infected CEM-SS cells; type: cell-based; conditions: human
Experimental: as §1, §2

CON=C(Cl)c1cc(/C(=C\CCCc2nc(C)no2)c2cccc(C#N)c2)cc(C)c1OC [ADAM 22, 5-[(1Z)-1-(3-Cyanophenyl)-5-(3-methyl-1,2,4-oxadiazol-5-yl)pent-1-en-1-yl]-N,2-dimethoxy-3-methylbenzenecarboximidoyl Chloride]
SI (CC50/EC50) CEM-SS cells [1]: 7 | EC50 [1]: 3.5 µM | SI (CC50/EC50) MT-4 cells [2]: 41 | EC50 [2]: 2.69 µM | IC50 [3]: > 100 µM | CC50 [4]: 110 µM | CC50 [5]: 25.5 µM

CON=C(F)c1cc(/C(=C\CCCN2CCOC2=O)c2cc(C)c3oc(=O)n(C)c3c2)cc(C)c1OC [ADAM 6, 5-[(1E)-1-(3,7-Dimethyl-2-oxo-2,3-dihydro-1,3-benzoxazol-5-yl)-5-(2-oxo-1,3-oxazolidin-3-yl)pent-1-en-1-yl]-N,2-dimethoxy-3-methylbenzenecarboximidoyl Fluoride]
EC50 [1]: > 100 µM | EC50 [2]: > 7.53 µM | IC50 [3]: 2.37 µM | CC50 [4]: 7.53 µM | CC50 [5]: 5.04 µM

CON=C(Cl)c1cc(/C(=C\CCCc2nc(C)no2)c2ccc(C#N)cc2)cc(C)c1OC [ADAM 24, 5-[(1Z)-1-(4-Cyanophenyl)-5-(3-methyl-1,2,4-oxadiazol-5-yl)pent-1-en-1-yl]-N,2-dimethoxy-3-methylbenzenecarboximidoyl Chloride]
SI (CC50/EC50) CEM-SS cells [1]: 7 | EC50 [1]: 2.52 µM | SI (CC50/EC50) MT-4 cells [2]: 35 | EC50 [2]: 2.75 µM | IC50 [3]: 0.1 µM | CC50 [4]: 97.5 µM | CC50 [5]: 16.9 µM

CON=C(F)c1cc(/C(=C\CCCc2nnc(C)o2)c2cc(C)c3onc(OC)c3c2)cc(C)c1OC [ADAM 7, N,2-Dimethoxy-5-[(1Z)-1-(3-methoxy-7-methyl-1,2-benzoxazol-5-yl)-5-(5-methyl-1,3,4-oxadiazol-2-yl)pent-1-en-1-yl]-3-methylbenzenecarboximidoyl Fluoride]
SI (CC50/EC50) CEM-SS cells [1]: 7 | EC50 [1]: 1.9 µM | SI (CC50/EC50) MT-4 cells [2]: 6 | EC50 [2]: 2.86 µM | IC50 [3]: 1.4 µM | CC50 [4]: 15.8 µM | CC50 [5]: 13.9 µM

CON=C(F)c1cc(/C(=C\CCCN2CCOC2=O)c2ccc(C#N)cc2)cc(C)c1OC [ADAM 15, 5-[(1Z)-1-(4-Cyanophenyl)-5-(2-oxo-1,3-oxazolidin-3-yl)pent-1-en-1-yl]-N,2-dimethoxy-3-methylbenzenecarboximidoyl Fluoride]
EC50 [1]: > 100 µM | EC50 [2]: > 21.1 µM | IC50 [3]: > 100 µM | CC50 [4]: 21.1 µM | CC50 [5]: 6.7 µM

CO/N=C(\Cl)CCC/C=C(/c1cccc(C#N)c1)c1cc(C)c(OC)c(C(=O)SC)c1 [ADAM 28, S-Methyl 5-[(1Z,6Z)-6-Chloro-1-(3-cyanophenyl)-6-(methoxyimino)hex-1-en-1-yl]-2-methoxy-3-methylbenzenecarbothioate]
SI (CC50/EC50) CEM-SS cells [1]: 52 | EC50 [1]: 1.46 µM | SI (CC50/EC50) MT-4 cells [2]: 59 | EC50 [2]: 2.43 µM | IC50 [3]: 45.3 µM | CC50 [4]: 143 µM | CC50 [5]: 75.5 µM

CON=C(Cl)c1cc(/C(=C\CCCc2nc(C)no2)c2cc(C)c3onc(OC)c3c2)cc(C)c1OC [ADAM 20, N,2-Dimethoxy-5-[(1Z)-1-(3-methoxy-7-methyl-1,2-benzoxazol-5-yl)-5-(3-methyl-1,2,4-oxadiazol-5-yl)pent-1-en-1-yl]-3-methylbenzenecarboximidoyl Chloride]
SI (CC50/EC50) CEM-SS cells [1]: 7 | EC50 [1]: 1.7 µM | SI (CC50/EC50) MT-4 cells [2]: 5 | EC50 [2]: 4.21 µM | IC50 [3]: 8.03 µM | CC50 [4]: 21.2 µM | CC50 [5]: 11.4 µM

CON=C(F)c1cc(/C(=C\CCCN2CCOC2=O)c2cc(C)c3onc(OC)c3c2)cc(C)c1OC [ADAM 9, N,2-Dimethoxy-5-[(1Z)-1-(3-methoxy-7-methyl-1,2-benzoxazol-5-yl)-5-(2-oxo-1,3-oxazolidin-3-yl)pent-1-en-1-yl]-3-methylbenzenecarboximidoyl Fluoride]
EC50 [1]: > 100 µM | EC50 [2]: > 26.1 µM | IC50 [3]: 46.7 µM | CC50 [4]: 26.1 µM | CC50 [5]: 17.8 µM

CON=C(F)c1cc(/C(=C\CCCc2nc(C)no2)c2cccc(C#N)c2)cc(C)c1OC [ADAM 11, 5-[(1Z)-1-(3-Cyanophenyl)-5-(3-methyl-1,2,4-oxadiazol-5-yl)pent-1-en-1-yl]-N,2-dimethoxy-3-methylbenzenecarboximidoyl Fluoride]
EC50 [1]: > 100 µM | EC50 [2]: > 4.04 µM | IC50 [3]: 5.4 µM | CC50 [4]: 4.04 µM | CC50 [5]: 3.5 µM

CON=C(Cl)c1cc(/C(=C\CCCN2CCOC2=O)c2cc(C)c3oc(=O)n(C)c3c2)cc(C)c1OC [ADAM 18, 5-[(1E)-1-(3,7-Dimethyl-2-oxo-2,3-dihydro-1,3-benzoxazol-5-yl)-5-(2-oxo-1,3-oxazolidin-3-yl)pent-1-en-1-yl]-N,2-dimethoxy-3-methylbenzenecarboximidoyl Chloride]
EC50 [1]: > 100 µM | EC50 [2]: > 5.19 µM | IC50 [3]: 62.9 µM | CC50 [4]: 5.19 µM | CC50 [5]: 5.99 µM

CO/N=C(\Cl)CCC/C=C(/c1ccc(C#N)cc1)c1cc(C)c(OC)c(C(=O)SC)c1 [ADAM 29, S-Methyl 5-[(1Z,6Z)-6-Chloro-1-(4-cyanophenyl)-6-(methoxyimino)hex-1-en-1-yl]-2-methoxy-3-methylbenzenecarbothioate]
SI (CC50/EC50) CEM-SS cells [1]: 25 | EC50 [1]: 2.29 µM | SI (CC50/EC50) MT-4 cells [2]: 33 | EC50 [2]: 3.26 µM | IC50 [3]: 12 µM | CC50 [4]: 109 µM | CC50 [5]: 56.5 µM

CON=C(Cl)c1cc(/C(=C\CCCN2CCOC2=O)c2ccc(C#N)cc2)cc(C)c1OC [ADAM 25, 5-[(1Z)-1-(4-Cyanophenyl)-5-(2-oxo-1,3-oxazolidin-3-yl)pent-1-en-1-yl]-N,2-dimethoxy-3-methylbenzenecarboximidoyl Chloride]
EC50 [1]: > 100 µM | EC50 [2]: > 6.48 µM | IC50 [3]: 42.1 µM | CC50 [4]: 6.48 µM | CC50 [5]: 6.48 µM

CON=C(Cl)c1cc(/C(=C\CCCc2nnc(C)o2)c2ccc(C#N)cc2)cc(C)c1OC [ADAM 23, 5-[(1Z)-1-(4-Cyanophenyl)-5-(5-methyl-1,3,4-oxadiazol-2-yl)pent-1-en-1-yl]-N,2-dimethoxy-3-methylbenzenecarboximidoyl Chloride]
SI (CC50/EC50) CEM-SS cells [1]: 7 | EC50 [1]: 2.6 µM | SI (CC50/EC50) MT-4 cells [2]: 8 | EC50 [2]: 3.64 µM | IC50 [3]: 32.5 µM | CC50 [4]: 30.2 µM | CC50 [5]: 18.1 µM

CO/N=C(\Cl)CCC/C=C(\c1cc(C)c(OC)c(C(=O)SC)c1)c1cc(C)c2oc(=O)n(C)c2c1 [ADAM 26, S-Methyl 5-[(1E,6Z)-6-Chloro-1-(3,7-dimethyl-2-oxo-2,3-dihydro-1,3-benzoxazol-5-yl)-6-(methoxyimino)hex-1-en-1-yl]-2-methoxy-3-methylbenzenecarbothioate]
SI (CC50/EC50) CEM-SS cells [1]: >23 | EC50 [1]: < 0.32 µM | SI (CC50/EC50) MT-4 cells [2]: 109 | EC50 [2]: 0.54 µM | IC50 [3]: 3.4 µM | CC50 [4]: 59 µM | CC50 [5]: 7.45 µM

CON=C(F)c1cc(/C(=C\CCCc2nnc(C)o2)c2cccc(C#N)c2)cc(C)c1OC [ADAM 10, 5-[(1Z)-1-(3-Cyanophenyl)-5-(5-methyl-1,3,4-oxadiazol-2-yl)pent-1-en-1-yl]-N,2-dimethoxy-3-methylbenzenecarboximidoyl Fluoride]
EC50 [1]: > 100 µM | EC50 [2]: > 1.09 µM | IC50 [3]: 37.1 µM | CC50 [4]: 1.07 µM | CC50 [5]: 1.8 µM

CON=C(F)c1cc(/C(=C\CCCc2nc(C)no2)c2ccc(C#N)cc2)cc(C)c1OC [ADAM 14, 5-[(1Z)-1-(4-Cyanophenyl)-5-(3-methyl-1,2,4-oxadiazol-5-yl)pent-1-en-1-yl]-N,2-dimethoxy-3-methylbenzenecarboximidoyl Fluoride]
SI (CC50/EC50) CEM-SS cells [1]: 7 | EC50 [1]: 2.03 µM | SI (CC50/EC50) MT-4 cells [2]: 4 | EC50 [2]: 5.55 µM | IC50 [3]: 0.91 µM | CC50 [4]: 20.4 µM | CC50 [5]: 13.4 µM

CON=C(F)c1cc(/C(=C\CCCN2CCOC2=O)c2cccc(C#N)c2)cc(C)c1OC [ADAM 12, 5-[(1Z)-1-(3-Cyanophenyl)-5-(2-oxo-1,3-oxazolidin-3-yl)pent-1-en-1-yl]-N,2-dimethoxy-3-methylbenzenecarboximidoyl Fluoride]
EC50 [1]: > 100 µM | EC50 [2]: > 1.66 µM | IC50 [3]: > 100 µM | CC50 [4]: 1.66 µM | CC50 [5]: 1.66 µM

CON=C(Cl)c1cc(/C(=C\CCCc2nnc(C)o2)c2cccc(C#N)c2)cc(C)c1OC [ADAM 21, 5-[(1Z)-1-(3-Cyanophenyl)-5-(5-methyl-1,3,4-oxadiazol-2-yl)pent-1-en-1-yl]-N,2-dimethoxy-3-methylbenzenecarboximidoyl Chloride]
SI (CC50/EC50) CEM-SS cells [1]: 2 | EC50 [1]: 5.8 µM | SI (CC50/EC50) MT-4 cells [2]: 6 | EC50 [2]: 2.66 µM | IC50 [3]: 33.3 µM | CC50 [4]: 22.3 µM | CC50 [5]: 13.2 µM
